Square brackets hold non-standard residues; d marks the D form. Peptide text beside a SMILES is read from it. pGlu = O=C1CC[C@@H](C(=O)O)N1
Experiments:
[1] = test system: thrombus on silk thread in extracorporeal shunt of rats; test: Antithrombotic effect (II): extracorporeal shunt with silk thread, thrombus wet weight; format: in vivo, Wister strain male rats; settings: 20 minute circulation; for Thrombosis wet weight: mean ± S.E., control 38.1 ± 3.4
Method: The present pharmacological test was conducted according to the method by T. Umetsu et al. [Thrombosis and Haemostasis, 39, 74-83 (1978)]. Groups each consisting of 10 Wister strain male rats were anesthetized by intraperitoneal administration of 50 mg/kg of sodium pentobarbital. An extracorporeal shunt prepared by connecting cannula polyethylene tubes to both ends of a polyethylene tube into which a silk thread had been inserted was filled with heparin, the both ends were then inserted into the dissected and exposed left jugular vein and right carotid artery. Thereafter, blood circulation was started. The drug to be tested was intravenously administered one minute before the start of blood circulation. Aspirin was orally administered as a comparative drug. After 20 minute blood circulation, the wet weight of the thrombus coated to the silk thread was weighed, and the inhibition rate was calculated.

[2] = test system: restraint and water immersion stress ulcer in rats; test: (A) Restraint and water immersion stress ulcer inhibiting effect; format: in vivo; settings: stress 25° C., 4 hours, drug once before stress
Method: (§1) The peptide compound of this invention (Compound 25) and cimetidine and atropine both employed as the comparative drugs were intravenously administered.
According to the method by Takagi et al. [Takagi, K. et al., Chem. Pharm. Bull., 12, 465 (1964)], the effect on the ulcer in rats induced by stress due to restraint and immersing in water in wire cages (25° C., 4 hours) was examined. The drugs to be tested were administered once before loading the stress.

[3] = test system: aspirin-induced ulcer in rats; test: (B) Aspirin-induced ulcer inhibiting effect; format: in vivo; settings: drug once before oral aspirin 200 mg/kg
Method: 4. […] According to the method by Brodie et al. [Brodie, D. A. & Chase, B. J., Gastroenterology, 53, 604 (1967)], the drug to be tested was orally administered to rats once before the oral administration of 200 mg/kg of aspirin.

[4] = test system: histamine-induced ulcer in rats; test: (C) Histamine-induced ulcer inhibiting effect (ID50); format: in vivo; settings: drug once before histamine 300 mg/kg
Method: 4. […] According to the method by Bucher et al. [ Bucher, F. et al., Beitr. Path. Anat., 81, 391 (1928)], the drug to be tested was intraperitoneally administered to rats once before the oral administration of 300 mg/kg of histamine.

[5] = test system: cortisone-induced ulcer in rats; test: (D) Cortisone-induced ulcer inhibiting effect; format: in vivo; settings: starved rats, cortisone acetate 20 mg/kg s.c. and drug once a day for 4 days
Method: as §1
According to the method by Robert et al. [Robert, A & Nezamis, J. E., Proc. Soc. Exptl. Biol. Med., 99, 443 (1958)], rats were starved, and 20 mg/kg of cortisone acetate was subcutaneously administered once a day for 4 days to induce ulcer. The drug to be tested was also administered simultaneously with the cortisone acetate once a day for 4 days.

[6] = test system: cysteamine-induced duodenal ulcer in rats; test: (E) Cysteamine-induced duodenal ulcer inhibiting effect; format: in vivo; settings: drug once before cysteamine hydrochloride 400 mg/kg
Method: as §1
According to the method by Robert at al. [Robert, H. et al., Digestion, 11, 199 (1974)], 400 mg/kg of cysteamine hydrochloride was administered to rats to induce duodenal ulcer. The drug to be tested was administered once before the administration of the cysteamine.

[7] = test system: histamine-induced ulcer in rats; test: Histamine-induced ulcer inhibiting effect (Table 1); format: in vivo, Wister strain male rats; settings: histamine dihydrochloride 300 mg/kg i.p., 4 hours; for Ulcer coefficient (total surface area of ulcer lesion): mean ± S.E., control 28.4 ± 3.2
Method: Groups each consisting of 10 Wister strain male rats (120-130 g) were starved for 24 hours, and the drug to be tested were intravenously administered (i.v.). Immediately thereafter, according to the method by Bucher et al. [Bucher, F. et al., Beitr. Path. Anat. 81, 391 (1928)], 300 mg/kg of histamine dihydrochloride was administered intraperitoneally (i.p.). Four hours later, each animal was decapitated to bleed, and the stomach was removed. 6 ml of physiological saline was infused into the removed stomach, which was then dipped in 10% formalin for 10 minutes. Then, the stomach was incised along the greater curvature. The ulcer appeared on the stomach mucous membrane was observed on a stereoscopic microscope to measure the surface area of the ulcer lesion, and the total area was designated as the ulcer coefficient.

[8] = test system: pylorus ligation ulcer in rats; test: Pylorus ligation ulcer inhibiting effect; format: in vivo, Wister strain male rats; settings: 1 mg/kg i.p., 18 hours after pylorus ligation, mean ± S.E., control 4.5 ± 0.3
Method: Groups each consisting of 10 Wister strain male rats were starved for 24 hours, and the pylorus was ligatured under etherized conditions. The peptide compound of this invention (Compound 25) was intraperitoneally administered. Eighteen hours later, the stomach was removed and cut open. The ulcer appeared on the rumen was evaluated using 6-ranked ulcer index according to the method by Narumi et al. [A. Narumi, et al., J. Takeda Res. Lab., 29, 85 (1970)].

[9] = test system: acetic acid-induced ulcer in rats; test: Acetic acid-induced (chronic) ulcer inhibiting effect; format: in vivo; settings: once a day for 10 days
Method: The effect of the peptide compound of this invention on chronic ulcer was examined according to the method by Takagi et al. [Takagi, K. et al., Japan J. Pharmacol., 19, 418 (1970)]. That is, 0.025 ml of 30% acetic acid was injected to the stomach serous membrane in rats, and for 10 days thereafter, the peptide compound of this invention (Compound 25) was intravenously administered once a day. Gefarnate and secretin both employed as the comparative drugs were similarly intramuscularly administered (i.m.).

[10] = test system: Collagen Induced Hemagglutination; test: Antithrombotic effect (I): collagen induced hemagglutination in plasma of dosed rats; format: in vivo, Wister strain male rats; settings: collagen as coagulant; for Transmittance: mean ± S.E., control 52.5 ± 7.1
Method: (§2) Groups each consisting of 10 Wister strain male rats (120-160 g) were administered with the drug to be tested through the tail vein, and 5 minutes later, blood was taken under etherized conditions at a ratio to 3.8% aqueous sodium citrate solution of 1/10. This was centrifugally separated into platelet rich plasma (PRP) and platelet poor plasma (PPP). Using ADP or collagen as the coagulant, the reaction was effected at 37° C. The transmittance of the plasma with the coagulant and drug to be tested was measured using PRP and PPP as the standards, compared with the control, and the percent inhibition was calculated. As the comparative drug, ticlopidine was orally administered.

[11] = test system: ADP Induced Hemagglutination; test: Antithrombotic effect (I): ADP induced hemagglutination in plasma of dosed rats; format: in vivo, Wister strain male rats; settings: ADP as coagulant; for Transmittance: mean ± S.E., control 62.9 ± 6.3
Method: as §2

[12] = 1 mg/kg i.v. one minute before circulation
[13] = 10 mg/kg i.v. one minute before circulation
[14] = 10 mg/kg via tail vein, blood taken 5 minutes later

For `CC(=O)Oc1ccccc1C(=O)O` [Aspirin], the “Thrombosis wet weight” value ([1]; 100 mg/kg orally) was 22.3 ± 3.2 mg and the inhibition at 100 mg/kg ([1]; Rattus norvegicus, po, 20 min, 100 mg/kg orally, read-out: Inhibition rate (%)) was 41.5%.

In the case of `CN1[C@@H]2CC[C@H]1C[C@@H](OC(=O)C(CO)c1ccccc1)C2` (stereo partly drawn) [Atropine, atropine], the “ID50 (A) restraint and water immersion stress ulcer” value [2] is reported as 0.4 mg/kg, i.v, the “ID50 (B) aspirin-induced ulcer” value [3] is reported as 0.52 mg/kg, i.v and the “ID50 (C) histamine-induced ulcer” value [4] is reported as 0.35 mg/kg, i.v. The “ID50 (D) cortisone-induced ulcer” value [5] was 0.25 mg/kg, i.v and the “ID50 (E) cysteamine-induced duodenal ulcer” value [6] was 0.35 mg/kg, i.v.

In the case of `CN/C(=N/CCSCc1nc[nH]c1C)NC#N` [Cimetidine, cimetidine], the “Ulcer coefficient (total surface area of ulcer lesion)” value (from here on “Ulcer coefficient”) ([7]; 25 mg/kg i.v.) is reported as 10.9 ± 1.9, the inhibition at 25 mg/kg ([7]; Rattus norvegicus, 25 mg/kg i.v., read-out: Inhibition rate (%)) is reported as 61.6% and the “ID50 (A) restraint and water immersion stress ulcer” value [2] is reported as 37.0 mg/kg, i.v. The “ID50 (B) aspirin-induced ulcer” value [3] was 39.0 mg/kg, i.v, the “ID50 (C) histamine-induced ulcer” value [4] was 17.0 mg/kg, i.v and the “ID50 (D) cortisone-induced ulcer” value [5] was 28.0 mg/kg, i.v. The “ID50 (E) cysteamine-induced duodenal ulcer” value [6] was 26.0 mg/kg, i.v.

`NCCCC[C@H](NC(=O)[C@H](Cc1c[nH]cn1)NC(=O)[C@H](CO)NC(=O)CN)C(=O)O` [Compound 25, Gly-Ser-His-Lys.CH3 COOH.H2 O] (H-GSHK-OH) was tested, and the “Inhibition rate (%)” value ([7]; 20 mg/kg i.v.) was 79.9%, the “Ulcer coefficient” value ([7]; 20 mg/kg i.v.) was 5.7 ± 2.6 and the “Ulcer index (6-ranked)” value [8] was 3.1 ± 0.5. The “ID50 (A) restraint and water immersion stress ulcer” value [2] was 4.2 mg/kg, i.v, the “ID50 (B) aspirin-induced ulcer” value [3] was 5.0 mg/kg, i.v and the “ID50 (C) histamine-induced ulcer” value [4] was 6.0 mg/kg, i.v. The “ID50 (D) cortisone-induced ulcer” value [5] was 1.85 mg/kg, i.v, the “ID50 (E) cysteamine-induced duodenal ulcer” value [6] was 5.0 mg/kg, i.v and the “ID50 acetic acid-induced ulcer” value ([9]; intravenous) was 1.0 mg/kg, i.v. For the same compound, the Transmittance ([10]; 10.0 mg/kg via tail vein, 10 mg/kg) was 14.8 ± 4.9, the “Inhibition rate (%)” value ([10]; 10 mg/kg) was 71.8% and the “Inhibition rate (%)” value [1, 12] was 27.3%. The “Thrombosis wet weight” value [1, 12] was 27.7 ± 4.0 mg, the “Inhibition rate (%)” value [1, 13] was 44.1% and the “Thrombosis wet weight” value [1, 13] was 21.3 ± 3.3 mg.

In the case of `NCCCC[C@H](NC(=O)[C@H](Cc1c[nH]cn1)NC(=O)[C@H](CO)NC(=O)[C@@H]1CCC(=O)N1)C(=O)O` [Compound 28, (pyr)Glu-Ser-His-Lys] ([pGlu]SHK-OH), the “Inhibition rate (%)” value ([7]; 20 mg/kg i.v.) is reported as 57.0%, the “Ulcer coefficient” value ([7]; 20 mg/kg i.v.) is reported as 12.2 ± 2.6 and the “Inhibition rate (%)” value [11, 14] is reported as 57.9%. The Transmittance [11, 14] was 26.5 ± 7.2.

With `CC(C)=CCC/C(C)=C/CC/C(C)=C/CCC(=O)OC/C=C(\C)CCC=C(C)C` [Gefarnate] the “ID50 acetic acid-induced ulcer” value ([9]; intramuscular) was 250 mg/kg, i.m.

In the case of `Clc1ccccc1CN1CCc2sccc2C1` [Thichlopidine, ticlopidine], the Transmittance ([11]; 100 mg/kg orally) is reported as 41.6 ± 10.4, the inhibition at 100 mg/kg ([11]; Rattus norvegicus, po, 100 mg/kg orally, read-out: Inhibition Rate (%)) is reported as 33.9% and the inhibition at 100 mg/kg ([10]; Rattus norvegicus, po, 100 mg/kg orally, read-out: Inhibition rate (%)) is reported as 34.1%. It also gave a Transmittance ([10]; 100 mg/kg orally) of 34.6 ± 10.8.

secretin was tested, and the “ID50 acetic acid-induced ulcer” value ([9]; intramuscular) was > 100 U/kg, i.m.
